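Values below derive from 48-hour exposures of cells grown in 96-well plates, with endpoints linearly interpolated between the two concentrations bracketing the appropriate inhibition level. The concentration for 50% growth inhibition is given as GI50. TGI denotes the concentration required for complete inhibition of growth.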
What was measured:
Assay in all cases: DTP human tumour cell line panel, 48 h
[1] = test system: NCI/ADR-RES ovarian
[2] = test system: M14 melanoma
[3] = test system: SNB-19 CNS
[4] = test system: NCI-H460 lung
[5] = test system: PC-3 prostate
[6] = test system: UACC-257 melanoma
[7] = test system: OVCAR-4 ovarian
[8] = test system: HS 578T breast
[9] = test system: NCI-H23 lung
[10] = test system: SF-268 CNS
[11] = test system: TK-10 renal
[12] = test system: A498 renal
[13] = test system: CAKI-1 renal
[14] = test system: MDA-MB-435
[15] = test system: DU-145 prostate
[16] = test system: 786-0 renal
[17] = test system: CCRF-CEM leukemia
[18] = test system: SW-620 colon
[19] = test system: NCI-H522 lung
[20] = test system: HCT-116 colon
[21] = test system: HCC-2998 colon
[22] = test system: MOLT-4 leukemia
[23] = test system: MALME-3M melanoma
[24] = test system: HOP-62 NSCLC
[25] = test system: HL-60(TB) leukemia
[26] = test system: SR leukemia
[27] = test system: HT29 colon
[28] = test system: OVCAR-8 ovarian
[29] = test system: NCI-H226 lung
[30] = test system: K-562 leukemia
[31] = test system: EKVX NSCLC
[32] = test system: SF-539 CNS
[33] = test system: LOX IMVI melanoma
[34] = test system: SK-MEL-2 melanoma
[35] = test system: OVCAR-3 ovarian
[36] = test system: OVCAR-5 ovarian
[37] = test system: SK-OV-3 ovarian
[38] = test system: SK-MEL-28 melanoma
[39] = test system: KM12 colon
[40] = test system: UO-31 renal
[41] = test system: T-47D breast
[42] = test system: SN12C renal
[43] = test system: A549 NSCLC
[44] = test system: MCF7 breast
[45] = test system: COLO 205 colon
[46] = test system: ACHN renal
[47] = test system: HOP-92 NSCLC
[48] = test system: HCT-15 colon
[49] = test system: IGROV1 ovarian
[50] = test system: SK-MEL-5 melanoma
[51] = test system: U251 CNS
[52] = test system: MDA-MB-231 breast
[53] = test system: UACC-62 melanoma
[54] = test system: BT-549 breast
[55] = test system: SF-295 CNS
[56] = test system: RPMI-8226 leukemia

In the case of COc1ccc(/C=N/C2=C(C#N)C(c3ccccc3)c3ccc4ccccc4c3O2)cc1 (centres undefined), the GI50 [1] is reported as 262 nM, the GI50 [2] is reported as 336 nM and the TGI [2] is reported as > 100000 nM. For the same molecule, the GI50 [3] was 540 nM, the TGI [3] was > 100000 nM and the GI50 [4] was 363 nM. For the same molecule, the TGI [4] was > 100000 nM, the GI50 [5] was 393 nM and the TGI [5] was > 100000 nM. The GI50 [6] was > 84500 nM, the TGI [6] was > 100000 nM and the GI50 [7] was 645 nM. For the same molecule, the TGI [7] was > 100000 nM, the GI50 [8] was 279 nM and the TGI [8] was > 100000 nM. The GI50 [9] was 469 nM, the TGI [9] was > 100000 nM and the GI50 [10] was 1650 nM. The TGI [10] was > 100000 nM, the GI50 [11] was 26000 nM and the TGI [11] was > 100000 nM. For the same molecule, the GI50 [12] was 213 nM, the TGI [12] was 785 nM and the GI50 [13] was 224 nM. The TGI [13] was > 61800 nM, the GI50 [14] was 96.2 nM and the TGI [14] was 353 nM. The GI50 [15] was 428 nM, the TGI [15] was > 100000 nM and the GI50 [16] was 492 nM. The TGI [16] was > 100000 nM, the GI50 [17] was 377 nM and the TGI [17] was > 100000 nM. The GI50 [18] was 316 nM, the TGI [18] was > 100000 nM and the GI50 [19] was 128 nM. For the same molecule, the TGI [19] was 5500 nM, the GI50 [20] was 402 nM and the TGI [20] was > 37800 nM. The GI50 [21] was 920 nM, the TGI [21] was > 42000 nM and the GI50 [22] was 516 nM. The TGI [22] was > 100000 nM, the TGI [23] was > 100000 nM and the GI50 [24] was 373 nM. For the same molecule, the TGI [24] was > 100000 nM, the GI50 [25] was 321 nM and the TGI [25] was 1440 nM. For the same molecule, the GI50 [26] was 304 nM, the TGI [26] was > 75800 nM and the GI50 [27] was 530 nM. The TGI [27] was > 100000 nM, the GI50 [28] was 486 nM and the TGI [28] was > 100000 nM. For the same molecule, the GI50 [29] was 2080 nM, the TGI [29] was > 100000 nM and the GI50 [30] was 230 nM. The TGI [30] was > 100000 nM, the TGI [31] was > 100000 nM and the GI50 [32] was 244 nM. For the same molecule, the TGI [32] was 1050 nM, the GI50 [33] was 587 nM and the TGI [33] was > 51400 nM. For the same molecule, the GI50 [34] was 545 nM, the TGI [34] was > 100000 nM and the GI50 [35] was 343 nM. For the same molecule, the TGI [35] was > 100000 nM, the GI50 [36] was 885 nM and the TGI [36] was > 100000 nM. The GI50 [37] was 539 nM, the TGI [37] was > 100000 nM and the GI50 [38] was 1370 nM. For the same molecule, the TGI [38] was > 100000 nM, the GI50 [39] was 397 nM and the TGI [39] was > 100000 nM. The GI50 [40] was 368 nM, the TGI [40] was > 100000 nM and the GI50 [41] was 493 nM. The TGI [41] was > 100000 nM, the GI50 [42] was 680 nM and the TGI [42] was > 100000 nM. The GI50 [43] was 641 nM, the TGI [43] was > 100000 nM and the GI50 [44] was 425 nM. The TGI [44] was > 100000 nM, the GI50 [45] was 719 nM and the TGI [45] was 8490 nM. For the same molecule, the GI50 [46] was 690 nM, the TGI [46] was > 100000 nM and the GI50 [47] was 439 nM. The TGI [47] was > 44000 nM, the GI50 [48] was 509 nM and the TGI [48] was > 100000 nM. For the same molecule, the GI50 [49] was 403 nM, the TGI [49] was > 100000 nM and the GI50 [50] was 336 nM. For the same molecule, the TGI [50] was 7950 nM, the GI50 [51] was 457 nM and the TGI [51] was > 100000 nM. It also gave a GI50 [52] of 522 nM, a TGI [52] of 8390 nM and a GI50 [53] of 491 nM. For the same molecule, the TGI [53] was > 100000 nM, the GI50 [54] was 793 nM and the TGI [54] was > 100000 nM. For the same molecule, the GI50 [55] was 314 nM, the TGI [55] was > 100000 nM and the GI50 [56] was 383 nM. For the same molecule, the TGI [56] was > 38000 nM.
